# Measurements reported in patent US20200332222A1, “MUSK COMPOSITIONS AND METHODS OF USE THEREOF” (TAKASAGO INTERNATIONAL CORPORATION (USA), priority 2015, published 2020).
# What was measured:
# [1] = test system: salivary cortisol; assay: Salivary cortisol before vs after timed ten minute mathematical/word stress test, fragrance inhaled; assay type: in vivo, human; conditions: for Cortisol Data (change before vs after stress test): Table 6, about 10-15 panelists, DPG control −10.9%
# From the text: Salivary cortisol is widely used as a biomarker for stress. The purpose of this study was to investigate the influence of individual fragrance compounds, particularly musk compounds, on a subject's cortisol levels before and after exposure to a stressor. The subject sniffed each musk compound, then was exposed to a stressor. The goal was to identify one or more specific musk compounds which caused the least amount of change in cortisol levels or decreased a subject's cortisol levels compared to before administration, thereby reducing or inhibiting a response to stress stimuli. […]
# Stress was induced in a number of panelists (about 10-15) for each tested compound using a timed ten minute mathematical/word test in a small group competition setting. The test compound was introduced at intervals during the stress test.
# Saliva was collected before and immediately after the stress test. Saliva samples were assayed for salivary cortisol levels and salivary alpha-amylase activity using a commercially available kinetic reaction assay kit (Salimetrics®, State College, Pa.). […]
# (§1) Saliva was collected before (Pre) and immediately after (Post) the stress test. Saliva samples were assayed for salivary alpha-amylase using a commercially available kinetic reaction assay kit and for salivary cortisol using a highly sensitive enzyme immunoassay kit (Salimetrics®, State College, Pa.).
# [2] = test system: salivary alpha-amylase; assay: Salivary alpha-amylase before vs after timed ten minute mathematical/word stress test, fragrance inhaled; assay type: in vivo, human; conditions: for Salivary Amylase Data (change before vs after stress test): Table 6, about 10-15 panelists, DPG control +60.7%; for Percent change in salivary alpha-amylase: solvent only control 66.8%
# Description: Fourteen female panelists age 30-45 participated in this study. Stress was induced using a timed ten minute mathematical/word test in a small group competition setting. Fragrance was introduced at intervals during the stress test. Saliva was collected before (Pre) and immediately after (Post) the stress test. Saliva samples were assayed for salivary alpha-amylase using a commercially available kinetic reaction assay kit and for salivary cortisol using a highly sensitive enzyme immunoassay kit (Salimetrics®, State College, Pa.). […]
# as §1
# [3] = Chassis-air partition coefficient of accord components; assay type: physicochemical
# [4] = as above; assay type: physicochemical; conditions: BC-162 shampoo chassis
# From the text: The chassis-air partition coefficient can be measured for materials in various chassis.
# Ki,chassis-air is the chassis-air partition coefficient for component i in the fragrance formula
# Ci, chassis is the concentration of component i in the product formula chassis in molarity, M
# Ci, air is the concentration of component i in the headspace air in equilibrium with the formula chassis in molarity, M
# For the “Example Accord” in the BC-162 shampoo chassis components, the log chassis-air partition coefficients are as listed in Table 11.
# [5] = test system: brain waves; assay: Contingent Negative Variant (CNV) analysis of brain waves recorded by EEG; assay type: in vivo, human; conditions: Example 9; Musk T 10% by weight in DPG
# Description: Contingent Negative Variant (CNV) analysis was conducted on brain waves recorded from subjects using EEG (electroencephalography) in the presence of the musk fragrance compound. CNV analysis is summarized in Okazaki et al., Proceedings of the 13th International Congress of Flavours, Fragrances and Essential Oils, 15-19 Oct. 1995.
# [6] = Table 4, macrocyclic musks, 12-14 female panelists age 30-45, before vs immediately after stress test
# [7] = Table 5, non-macrocyclic musks, methods as Example 6
SMILES,Cortisol Data (change before vs after stress test) [1],Salivary Amylase Data (change before vs after stress test) [2],"logK, APDO Soft Solid (log chassis-air partition coefficient) [3]","logK, BC162 (log chassis-air partition coefficient) [4]","Percent change in salivary alpha-amylase [2, 6] [%]",other results
"CC(=O)C(C)CC[C@H]1CCC(C)C1(C)C (stereo partly drawn) [3-methyl-5-((1R)-2,2,3-trimethylcyclopentyl)pentan-2-one]",−16.5%,−6.1%,,,,
"O=C1CCCCCCCCC/C=C/CCCO1 [Habanolide, (12E)-1-oxacyclohexadec-12-en-2-one]",−20.6%,+4.67%,6.693,5.505,4.7,
CC(=O)CCc1ccc(O)cc1 [PARA HYDROXY PHENYL BUTANONE],,,6.135,7.809,,
"CC(=O)c1cc2c(cc1C)C(C)(C)C(C)C2(C)C (stereo not shown) [Phantolide, 1-(1,1,2,3,3,6-hexamethyl-2H-inden-5-yl)ethanone]",−12.3%,−19.2%,,,,
"CC1=CCC(C/C=C(\C)CO)C1(C)C (stereo not shown) [Hindinol, (E)-2-methyl-4-(2,2,3-trimethyl-1-cyclopent-3-enyl)but-2-en-1-ol]",−25.0%,+82.3%,,,,"Percent change in salivary alpha-amylase [2, 7]: 82.3%"
"CCOC(=O)[C@@H]1[C@@H](C)CCCC1(C)C [ethyl (1R,6S)-2,2,6-trimethylcyclohexane-1-carboxylate]",,,,,,"Percent change in salivary alpha-amylase [2, 7]: 70.7%"
"O=C1CCCCC=CCCCCCCCCCO1 [Ambrettolide, 17-oxacycloheptadec-6-en-1-one]",−11.25%,+13.16%,,,13.1,
CC1CCCCCCCCCCCCC(=O)C1 [L-Muscone],+25.6%,+14.5%,,,,
"O=C1CCCCCCCCCCCCCCO1 [EXALTOLIDE, 16-oxacyclohexadecan-1-one]",,,6.729,5.356,,
"O=C1CCCCCCCCCCCC(=O)OCCO1 [Musk T ®, ethylene brassylate]",,,7.306,6.345,47.1,"Pre vs. Post salivary cortisol level, decrease in response to stress test ([1]; Example 8, FIG. 4, Musk T 2.5% by weight in fragrance (floral fragrance/Musk T 75/25 admixture, 10% in DPG), DPG alone increased 24%): 8%; Pre vs. Post salivary cortisol level, increase in response to stress test ([1]; Example 9, FIG. 6, Musk T 10% by weight in DPG, DPG alone 41%): 10%; Pre vs. Post salivary alpha-amylase level, increase in response to stress test ([2]; Example 8, FIG. 3, Musk T 2.5% by weight in fragrance (floral fragrance/Musk T 75/25 admixture, 10% in DPG), DPG alone 120%): 38%; Pre vs. Post salivary alpha-amylase level, increase in response to stress test ([2]; Example 9, FIG. 5, Musk T 10% by weight in DPG, DPG alone 161%): 47%; increase in the level of relaxation, CNV analysis of brain waves [5]: 32.5%"
"CC(=O)OC(C)C1CCCC(C)(C)C1 (stereo not shown) [Rosamusk, 1-(3,3-dimethylcyclohexyl)ethyl acetate]",+6.68%,−15.2%,,,,"Pre vs. Post salivary cortisol level, increase in response to stress test ([1]; Example 10, FIG. 8, Rosamusk 10% by weight in DPG, DPG alone 25%): 7%; Pre vs. Post salivary alpha-amylase level, decrease in response to stress test ([2]; Example 10, FIG. 7, Rosamusk 10% by weight in DPG, DPG alone increased 33%): 15%"
"O=C1CCCC=CCCCCCCCCCC1 [Ambretone ®, 5-Cyclohexadecen-1-one]",,,,,36.9,
"O=C1CCCCCCCCCOCCCCCO1 [MUSK RI, 11-Oxahexadecan-16-olide]",,,6.970,5.780,,
